Source: US11655235B2, “Pyrrolidine and piperidine compounds” (YUHAN CORPORATION, priority 2019, dated 2023)

Experiments:
Assay type in all cases: biochemical
DPP4 = DPP4 (Homo sapiens, UniProt P27487); assay: DPP4 inhibition, fluorogenic substrate H-Gly-Pro-AMC; design: purchased R&D Systems; settings: recombinant human DPP4
recombinant human DPP8 = biological target: T1, recombinant human DPP8 (Homo sapiens, UniProt Q6V1X1); assay: DPP8 inhibition, fluorogenic substrate Z-Ala-Pro-AMC; settings: recombinant human DPP8
T1 construct: purchased PBS Bioscience
T1 sequence (Q6V1X1 whole entry): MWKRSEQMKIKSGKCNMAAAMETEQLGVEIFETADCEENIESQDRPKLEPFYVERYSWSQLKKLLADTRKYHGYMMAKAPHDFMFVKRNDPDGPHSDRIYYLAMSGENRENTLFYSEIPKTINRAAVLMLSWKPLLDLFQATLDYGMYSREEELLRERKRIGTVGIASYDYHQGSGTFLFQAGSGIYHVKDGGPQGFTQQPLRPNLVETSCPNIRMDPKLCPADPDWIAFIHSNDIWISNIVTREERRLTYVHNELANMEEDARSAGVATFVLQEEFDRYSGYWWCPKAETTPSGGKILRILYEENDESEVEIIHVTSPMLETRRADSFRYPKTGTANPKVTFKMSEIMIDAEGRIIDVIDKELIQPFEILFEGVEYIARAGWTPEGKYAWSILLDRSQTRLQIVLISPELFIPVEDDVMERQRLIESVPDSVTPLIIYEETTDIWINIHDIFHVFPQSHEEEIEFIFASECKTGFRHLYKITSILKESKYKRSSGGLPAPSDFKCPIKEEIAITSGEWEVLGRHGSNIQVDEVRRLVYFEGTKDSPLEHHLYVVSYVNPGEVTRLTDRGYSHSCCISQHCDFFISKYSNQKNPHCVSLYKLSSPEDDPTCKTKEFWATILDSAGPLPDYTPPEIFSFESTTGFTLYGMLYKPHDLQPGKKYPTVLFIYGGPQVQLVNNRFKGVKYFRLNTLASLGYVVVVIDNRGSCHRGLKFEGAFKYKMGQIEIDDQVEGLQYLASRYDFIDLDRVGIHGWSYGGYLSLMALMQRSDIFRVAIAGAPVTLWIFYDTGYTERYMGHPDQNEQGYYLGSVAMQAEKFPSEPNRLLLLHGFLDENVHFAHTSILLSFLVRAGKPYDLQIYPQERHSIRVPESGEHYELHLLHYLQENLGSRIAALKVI
In short: (§1)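 Inhibitors are titrated in an 8-point series into the enzyme's assay buffer (DMSO no more than 0.5%). Substrate cleavage at 25 °C is followed by fluorescence, excitation 380 nm and emission 460 nm. IC50 values come from a four-variable logistic model.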

recombinant human DPP9 = biological target: T2, recombinant human DPP9 (Homo sapiens, UniProt Q86TI2); assay: DPP9 inhibition, fluorogenic substrate H-Gly-Pro-AMC; settings: recombinant human DPP9
T2 construct: purchased R&D Systems
T2 sequence (Q86TI2 whole entry): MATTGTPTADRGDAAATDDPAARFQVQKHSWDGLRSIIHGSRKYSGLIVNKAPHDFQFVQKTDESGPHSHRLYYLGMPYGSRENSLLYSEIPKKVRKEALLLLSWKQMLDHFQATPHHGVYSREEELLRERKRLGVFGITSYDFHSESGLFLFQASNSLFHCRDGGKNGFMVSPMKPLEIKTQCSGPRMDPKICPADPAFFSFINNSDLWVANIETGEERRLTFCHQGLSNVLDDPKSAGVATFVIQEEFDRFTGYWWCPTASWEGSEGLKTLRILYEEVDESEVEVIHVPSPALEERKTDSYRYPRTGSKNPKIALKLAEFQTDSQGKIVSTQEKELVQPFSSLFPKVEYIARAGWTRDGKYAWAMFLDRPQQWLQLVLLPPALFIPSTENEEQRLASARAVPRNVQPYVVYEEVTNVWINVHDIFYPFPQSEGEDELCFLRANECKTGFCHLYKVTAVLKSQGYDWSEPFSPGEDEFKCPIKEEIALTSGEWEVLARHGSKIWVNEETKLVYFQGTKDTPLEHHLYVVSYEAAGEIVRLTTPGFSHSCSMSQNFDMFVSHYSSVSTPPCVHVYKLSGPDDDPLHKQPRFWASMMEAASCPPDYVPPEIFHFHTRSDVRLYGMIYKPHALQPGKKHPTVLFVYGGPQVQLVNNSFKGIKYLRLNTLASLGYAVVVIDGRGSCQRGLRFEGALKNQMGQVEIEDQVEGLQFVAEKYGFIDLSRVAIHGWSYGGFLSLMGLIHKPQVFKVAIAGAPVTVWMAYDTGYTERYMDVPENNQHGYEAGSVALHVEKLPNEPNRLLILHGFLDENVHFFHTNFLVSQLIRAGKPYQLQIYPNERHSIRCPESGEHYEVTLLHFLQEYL
In short: as §1

recombinant human DPP7 = biological target: T3, recombinant human DPP7 (Homo sapiens, UniProt Q9UHL4); assay: DPP7 inhibition, fluorogenic substrate Lys-Pro-AMC; settings: recombinant human DPP7
T3 construct: purchased R&D Systems
In short: as §1

Recombinant human FAP = biological target: T4, Recombinant human FAP (Homo sapiens, UniProt Q12884); assay: FAP FRET assay, FGF21-sequence FRET peptide substrate; settings: FRET peptide with human FGF21 sequence, 6 μM, 37° C.
T4 construct: purchased R&D systems
T4 sequence (Q12884 1-760): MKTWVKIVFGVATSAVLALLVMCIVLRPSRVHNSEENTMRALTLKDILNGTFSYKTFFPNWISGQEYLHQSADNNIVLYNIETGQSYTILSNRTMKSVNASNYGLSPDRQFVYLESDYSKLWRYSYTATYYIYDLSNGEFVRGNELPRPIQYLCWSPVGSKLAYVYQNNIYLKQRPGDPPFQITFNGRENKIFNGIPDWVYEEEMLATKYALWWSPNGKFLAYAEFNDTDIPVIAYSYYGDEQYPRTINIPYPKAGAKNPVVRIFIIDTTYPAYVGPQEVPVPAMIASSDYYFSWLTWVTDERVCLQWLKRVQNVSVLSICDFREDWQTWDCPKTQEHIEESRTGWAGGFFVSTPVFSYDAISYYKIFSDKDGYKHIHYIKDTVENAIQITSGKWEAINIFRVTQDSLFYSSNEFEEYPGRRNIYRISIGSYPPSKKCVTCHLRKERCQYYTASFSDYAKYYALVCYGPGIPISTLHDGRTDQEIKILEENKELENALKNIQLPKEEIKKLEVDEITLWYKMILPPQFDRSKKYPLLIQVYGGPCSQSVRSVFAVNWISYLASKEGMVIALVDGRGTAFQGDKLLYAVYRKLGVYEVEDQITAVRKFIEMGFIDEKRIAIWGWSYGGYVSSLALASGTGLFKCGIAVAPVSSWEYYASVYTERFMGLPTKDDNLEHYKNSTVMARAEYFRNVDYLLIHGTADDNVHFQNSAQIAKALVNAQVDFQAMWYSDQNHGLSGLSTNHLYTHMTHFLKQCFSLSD
In short: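 FRET peptide bearing human FGF21 sequence (6 μM final) cleaved by 10 ng recombinant human FAP at 37° C in HEPES pH 7.2 buffer with NaCl, BSA and EDTA, DMSO up to 0.1%. Signal-rate decrease versus uninhibited control fitted to a four-variable logistic model for IC50.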

recombinant human PREP = biological target: T5, recombinant human PREP (Homo sapiens, UniProt P48147); assay: PREP inhibition, fluorogenic substrate Z-Gly-Pro-AMC; settings: Inhibitory Activity (IC50, nM) PREP, recombinant human PREP
T5 construct: purchased R&D System
T5 sequence (P48147 1-710): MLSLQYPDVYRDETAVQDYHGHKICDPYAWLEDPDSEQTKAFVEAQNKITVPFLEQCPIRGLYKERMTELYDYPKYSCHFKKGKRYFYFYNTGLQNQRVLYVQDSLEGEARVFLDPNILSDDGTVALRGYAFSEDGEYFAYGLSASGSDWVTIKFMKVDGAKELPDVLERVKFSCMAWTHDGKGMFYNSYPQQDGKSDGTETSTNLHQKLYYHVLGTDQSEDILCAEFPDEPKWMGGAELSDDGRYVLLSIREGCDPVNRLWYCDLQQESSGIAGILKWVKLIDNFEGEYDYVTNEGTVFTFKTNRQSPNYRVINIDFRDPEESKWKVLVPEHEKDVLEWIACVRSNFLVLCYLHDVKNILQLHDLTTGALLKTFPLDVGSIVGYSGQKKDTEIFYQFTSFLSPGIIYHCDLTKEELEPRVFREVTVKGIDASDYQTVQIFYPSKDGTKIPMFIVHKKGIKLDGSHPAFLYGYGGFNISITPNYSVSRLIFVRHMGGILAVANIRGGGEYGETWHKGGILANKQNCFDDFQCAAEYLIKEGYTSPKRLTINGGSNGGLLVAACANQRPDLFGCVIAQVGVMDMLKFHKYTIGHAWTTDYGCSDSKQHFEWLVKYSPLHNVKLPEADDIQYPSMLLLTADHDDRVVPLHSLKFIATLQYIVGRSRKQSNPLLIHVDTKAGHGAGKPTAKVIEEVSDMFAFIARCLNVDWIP
In short: as §1

DPP4, sequence (P27487 whole entry): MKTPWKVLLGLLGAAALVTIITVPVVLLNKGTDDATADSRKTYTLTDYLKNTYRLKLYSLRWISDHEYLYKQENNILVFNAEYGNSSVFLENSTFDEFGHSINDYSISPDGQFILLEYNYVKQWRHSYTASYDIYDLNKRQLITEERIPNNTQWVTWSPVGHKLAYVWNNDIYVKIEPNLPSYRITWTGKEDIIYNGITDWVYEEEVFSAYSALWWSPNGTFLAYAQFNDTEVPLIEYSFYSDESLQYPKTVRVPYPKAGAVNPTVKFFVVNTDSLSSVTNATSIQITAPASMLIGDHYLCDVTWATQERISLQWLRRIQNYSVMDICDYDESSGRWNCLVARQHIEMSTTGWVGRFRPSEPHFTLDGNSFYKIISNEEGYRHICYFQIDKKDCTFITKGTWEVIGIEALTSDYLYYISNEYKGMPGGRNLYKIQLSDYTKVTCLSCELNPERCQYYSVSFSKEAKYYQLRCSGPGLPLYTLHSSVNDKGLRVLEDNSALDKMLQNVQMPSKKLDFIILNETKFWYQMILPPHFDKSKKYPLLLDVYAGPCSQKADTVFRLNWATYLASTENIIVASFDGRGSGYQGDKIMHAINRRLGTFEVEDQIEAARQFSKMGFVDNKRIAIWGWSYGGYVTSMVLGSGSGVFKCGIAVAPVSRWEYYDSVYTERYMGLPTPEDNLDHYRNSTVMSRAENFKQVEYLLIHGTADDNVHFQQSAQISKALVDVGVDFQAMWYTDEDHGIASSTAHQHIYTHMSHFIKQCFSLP

| IC50 (DPP4) [µM] | IC50 (recombinant human DPP8) [µM] | IC50 (recombinant human DPP9) [µM] | IC50 (recombinant human DPP7) [µM] | IC50 (Recombinant human FAP) [µM] | IC50 (recombinant human PREP) [nM] | Compound |
| --- | --- | --- | --- | --- | --- | --- |
| 17.4 | 1.2 | 3.33 | 1.01 | 0.0015 | 627 | N#C[C@@H]1CCCN1C(=O)CN1CCC(Nc2ccc(C(=O)Nc3ccccn3)c3ncccc23)CC1 [Example 399, 5-[[1-[2-oxo-2-[(2S)-2-cyanopyrrolidin-1-yl]ethyl]-4-piperidyl]amino]-N-(2-pyridyl)quinoline-8-carboxamide] |
| 17.4 | 0.971 | 2.01 | 0.961 | 0.0023 | 1960 | N#C[C@@H]1CCCN1C(=O)CN1CCC(Nc2ccc(C(=O)Nc3cccnc3)c3ncccc23)CC1 [Example 400, 5-[[1-[2-oxo-2-[(2S)-2-cyanopyrrolidin-1-yl]ethyl]-4-piperidyl]amino]-N-(3-pyridyl)quinoline-8-carboxamide] |
| 15.2 | 0.266 | 1.61 | 0.775 | 0.0059 | 1200 | N#C[C@@H]1CCCN1C(=O)CN1CCC(Nc2ccc(C(=O)Nc3ccncc3)c3ncccc23)CC1 [Example 401, 5-[[1-[2-oxo-2-[(2S)-2-cyanopyrrolidin-1-yl]ethyl]-4-piperidyl]amino]-N-(4-pyridyl)quinoline-8-carboxamide] |
| 12.4 | 1.52 | 7.83 | 1.16 | 0.0037 | 359 | N#C[C@@H]1CCCN1C(=O)CN1CCC(Nc2ccc(C(=O)Nc3ncccn3)c3ncccc23)CC1 [Example 402, 5-[[1-[2-oxo-2-[(2S)-2-cyanopyrrolidin-1-yl]ethyl]-4-piperidyl]amino]-N-pyrimidin-2-yl-quinoline-8-carboxamide] |
| 2.08 | 0.251 | 0.558 | 0.405 | 0.0018 | 60.2 | N#C[C@@H]1C[C@H](F)CN1C(=O)CN1CCC(Nc2ccc(C(=O)Nc3ncccn3)c3ncccc23)CC1 [Example 403, 5-[[1-[2-oxo-2-[(2S,4S)-2-cyano-4-fluoro-pyrrolidin-1-yl]ethyl]-4-piperidyl]amino]-N-pyrimidin-2-yl-quinoline-8-carboxamide] |
| 4.73 | 0.596 | 0.681 | 0.634 | 0.0018 | 78.3 | N#C[C@@H]1C[C@H](F)CN1C(=O)CN1CCC(Nc2ccc(C(=O)Nc3ccccn3)c3ncccc23)CC1 [Example 404, 5-[[1-[2-oxo-2-[(2S,4S)-2-cyano-4-fluoro-pyrrolidin-1-yl]ethyl]-4-piperidyl]amino]-N-(2-pyridyl)quinoline-8-carboxamide] |
| 2.16 | 0.0667 | 0.398 | 0.392 | 0.0019 | 597 | N#C[C@@H]1C[C@H](F)CN1C(=O)CN1CCC(Nc2ccc(C(=O)Nc3cccnc3)c3ncccc23)CC1 [Example 405, 5-[[1-[2-oxo-2-[(2S,4S)-2-cyano-4-fluoro-pyrrolidin-1-yl]ethyl]-4-piperidyl]amino]-N-(3-pyridyl)quinoline-8-carboxamide] |
| 2.7 | 0.0233 | 0.218 | 0.402 | 0.0042 | 535 | N#C[C@@H]1C[C@H](F)CN1C(=O)CN1CCC(Nc2ccc(C(=O)Nc3ccncc3)c3ncccc23)CC1 [Example 406, 5-[[1-[2-oxo-2-[(2S,4S)-2-cyano-4-fluoro-pyrrolidin-1-yl]ethyl]-4-piperidyl]amino]-N-(4-pyridyl)quinoline-8-carboxamide] |
| 1.82 | 0.314 | 0.756 | 0.395 | 0.0034 | < 30 | N#C[C@@H]1C[C@H](F)CN1C(=O)CN1CCC(Nc2ccc(C(=O)Nc3ccon3)c3ncccc23)CC1 [Example 407, N-isoxazol-3-yl-5-[[1-[2-oxo-2-[(2S,4S)-2-cyano-4-fluoro-pyrrolidin-1-yl]ethyl]-4-piperidyl]amino]quinoline-8-carboxamide] |
